Patent US8759488B2, “High stability streptavidin mutant proteins” (Isis Innovation Limited, priority 2009, dated 2014)

Legend:
[1] = cited from earlier work
[2] = Biotin-4-fluorescein (B-4-F) off-rate assay; format: binding
Description: The off rate of streptavidin or the streptavidin mutants for biotin can be easily measured using the Biotin-4-fluorescein (B-4-F) off-rate assay described in the Examples. In this assay streptavidin (or a mutant thereof) is incubated with 12 nM B-4-F for 30 minutes at 37° C., where the binding of B-4-F to streptavidin quenches fluorescence. Excess biotin (100 μM) is added and fluorescence is then measured every 10 minutes for 10-18 hours. The rate of recovery of fluorescence indicates B-4-F off-rate from the streptavidin. Thus, the quicker that the fluorescence is seen in the sample the higher is the off rate, as fluorescence only starts to increase once B-4-F has dissociated from streptavidin.
The amount of B-4-F recovered during an incubation with wildtype streptavidin is at least 9%, for example 10, 11 or 12%. The amount of B-4-F recovered after a 10 hour incubation with a mutant streptavidin of the present invention may be less than 9%, for example less than 8, 7, 6, 5, 4, 3, 2 or 1%. Particularly, the amount of B-4-F recovered may be 2-3%.
The off-rate of biotin-4-fluorescein from avidin, streptavidin or traptavidin was measured using a PHERAstar plate-reader with 480 nm excitation and 520 nm emission (BMG LABTECH). In this assay the binding of biotin-4-fluorescein to an excess of binding protein results in quenching of fluorescein emission (Kada et al., 1999, Biochim. Biophys. Acta, 1427, 33-43). As the biotin-4-fluorescein dissociates, the fluorescence recovers. The assay was performed in the presence of excess biotin so that sites left open by biotin-4-fluorescein dissociation are immediately re-filled by biotin. 1 μM protein in 10 μL PBS was added to 12 nM biotin-4-fluorescein (Invitrogen), 0.12 mg/mL BSA in 170 μL PBS and incubated for 1 hr at 37° C. 20 μL PBS or 20 μL 1 mM biotin in PBS was then added and fluorescence measurements immediately started at 37° C. Percentage dissociation was calculated as (signal with biotin−signal without biotin)/(signal without quenching−signal without biotin)×100.
Since biotin-4-fluorescein fluorescence is decreased at low pH, 100 nM streptavidin, S52G R53N streptavidin, S52G R53S streptavidin, or traptavidin was incubated with 12 nM biotin-4-fluorescein in 100 mM NaCl, 30 mM sodium citrate pH 5.0 for 3 hr at 25° C., before incubating at 37° C. and adding 100 μM biotin and incubating for various times. Samples were then placed on ice to block further dissociation, adjusted to pH 7.2 with 1M HEPES pH 8.3, and fluorescence intensity was immediately measured as above. p-values were calculated using two-tailed Student t-tests from the data at the final timepoint.

[3] = free biotin; cited from earlier work
[4] = depending on the conjugate; cited from earlier work
[5] = Thermostability of biotin-conjugate binding (agarose gel); details: for dissociation of biotinylated DNA at 70° C.: 3 min
Description: For example, thermostability for biotin or a biotin conjugate can be measured in terms of the temperature at which 50% of the biotin or biotin conjugate is bound by the streptavidin, i.e. the temperature at which there is 50% dissociation. […] Thermostability for biotin or a biotin conjugate can be easily determined by heating streptavidin or a mutant thereof with biotin or a biotin conjugate to a particular temperature and then placing on ice. The amounts of free versus bound biotin conjugate present can be determined using an agarose gel and quantifying the band intensities.
To determine the thermostability of bioin-conjugate binding, 5.0 μM streptavidin or traptavidin in PBS was incubated with 21 nM monobiotinylated DNA in 4 μL for 30 minutes at 25° C. The samples were made up to a total volume of 10 μL with a final concentration of 100 μM biotin, 20 mM Tris acetate, 1 mM DDT, 2 mM magnesium acetate and 20 mM potassium glutamate pH 7.5 and were incubated for 5 minutes at 25° C. Samples were then heated at the indicated temperature for 3 minutes using a Thermal Cycler and cooled to 10° C. An agarose gel of 1.5% was run at 6.0V/cm in TAE at 25° C. for 45 minutes and DNA stained with ethidium bromide was visualized using a ChemiDoc XRS imager and QuantityOne 4.6 software. The percentages were calculated as 100× the intensity of the band for free DNA divided by the summed intensities of the bands for free and bound DNA. The 439 bp biotinylated DNA was prepared by PCR using Taq polymerase employing the primers Fts1 and the internally biotinylated primer bioFts2 (Eurofins) from the plasmid pJEG41-N1.

[6] = system: biotinylated DNA with FtsK50C; assay: FtsK displacement assay; parameters: species or system E. coli; details: in the presence of ATP, 2 min, 25° C.
Description: The FtsK displacement assay was performed at 25° C. in 25 mM Tris pH 7.5, 10 mM MgCl2. 5.9 nM DNA fragment was incubated with 0.5 μM streptavidin or traptavidin for 15 min, followed by 100 μM biotin to block free biotin binding sites. 1 μM FtsK50C was added and allowed to bind to the DNA for 5 min. 2.5 mM ATP was added to start the reaction, which was stopped after 2 min with 0.1% SDS and 20 mM EDTA. Samples were incubated for 20 mM to allow FtsK50C denaturation, mixed with 10× gel loading buffer (250 mM Tris pH 7.5, 20 mM EDTA, 50% glycerol, 2.5% bromophenol blue) and loaded on a 1.5% agarose gel in 1×TBE (89 mM Tris, 89 mM boric acid, 2 mM EDTA, pH 8.3) at 10 V/cm for 2 hr at 25° C. Gels were stained with SYBR Green (Invitrogen) for 2 hr, washed in ddH2O for 30 mM, imaged using a Fuji FLA3000 scanner, and quantified using Image Gauge software (Fuji). p-values were calculated using a two-tailed Student t-test.

[7] = Thermostability of the tetramer structure (SDS-PAGE); format: physicochemical; details: absence of biotin, heated 3 min
Description: Streptavidin naturally occurs in tetrameric form i.e. made up of four streptavidin subunits. Streptavidin tetramers will however dissociate into monomeric form at high temperatures. […] For example, thermostability can be measured in terms of the temperature at which 50% of streptavidin is in the tetrameric form and 50% is in the monomeric form i.e. the temperature at which there is 50% dissociation.
Thermostability can be easily determined by heating streptavidin or a mutant thereof to a particular temperature and then placing on ice. The amounts of subunits/tetramers present can be determined using SDS-PAGE and quantifying band intensities.
3 μM streptavidin or traptavidin in PBS was heated at the indicated temperature for 3 min in a Bio-Rad DNA Engine® Peltier Thermal Cycler and then immediately placed on ice (Bayer et al., 1996, Electrophoresis, 17, 1319-1324). Samples were mixed with 6×SDS-PAGE loading buffer and loaded onto a 18% polyacrylamide gel. The 100% monomer positive control was mixed with SDS loading buffer prior to heating at 95° C. for 3 min. Band intensities were quantified using a ChemiDoc XRS imager and QuantityOne 4.6 software (Bio-Rad).

[8] = On-rate assay (biotin-4-fluorescein quenching); format: binding
Description: The on rate can be measured again using an adapted B-4-F assay as described above. […] The on rate can therefore be established by the decrease in the amount of fluorescence which occurs over the incubation time. The faster the rate of decrease in fluorescence, the higher the on rate.
The on-rate of biotin-4-fluorescein from streptavidin or traptavidin was measured in PBS on a PHERAstar plate-reader (BMG LABTECH). In this assay the binding of biotin-4-fluorescein to streptavidin/traptavidin results in quenching of the fluorescein emission (Kada et al., 1999). 20 μL 10 nM streptavidin or traptavidin was added to 180 μL 56 μM biotin-4-fluorescein and the fluorescein emission at measured every 6 s at 25° C. The concentration of free biotin-4-fluorescein was calculated as (signal with biotin−signal without biotin)/(signal without quenching−signal without biotin)×50 μM starting biotin-4-fluorescein. Linear regression using GraphPad Prism was applied to the plot of 1n free biotin-4-fluorescein against time, with the gradient equal to kon×[streptavidin or traptavidin].

[9] = system: AP-IGF1R/BirA-ER expressing COST cells; assay: Cellular imaging with Alexa Fluor 555 conjugates; format: cell-based
Description: Streptavidin and […] labeled with Alexa Fluor 555 by adding 1/10 volume of 1 M NaHCO3 pH 8.3 and then a 10-fold molar excess of Alexa Fluor 555 succinimidyl ester (Invitrogen) (stock dissolved at 1 mg/mL in dry dimethylformamide) and incubating for 4 hr at room temperature. Free dye was separated using 1 mL packed volume Sephadex G-25 (Sigma) in a poly-prep column. Fractions containing labelled protein were pooled and dye was further removed by three rounds of dialysis in PBS. COST cells were grown in DMEM with 10% Fetal Calf Serum, 50 U/mL penicillin and 50 μg/mL streptomycin. Cells were transfected using Lipofectamine 2000 (Invitrogen) following manufacturer's instructions with 0.25 μg AP-IGF1R, 0.2 μg BirA-ER and 0.05 μg H2B-ECFP per well of a 48 well plate. Cells were incubated with 10 μM biotin overnight for optimum biotinylation by BirA-ER. On the next day, cells were washed 3× in PBS with 5 mM MgCl2 (PBS/Mg) and kept thereafter at 4° C. Cells were incubated for 15 min in PBS/Mg with 1% dialyzed BSA and 0.4 μM Alexa Fluor 555 conjugated […]. Cells were washed with PBS/Mg 3× before imaging live. Cells were imaged using a wide-field DeltaVision Core fluorescent microscope (AppliedPrecision) with a 40× oil-immersion lens. ECFP (436DF20 excitation, 480DF40 emission, Chroma 86002v1 dichroic), Alexa Fluor 555 (540D420 excitation, 600DF50 emission, Chroma 84100bs polychroic), and bright-field images were collected and analyzed using softWoRx 3.6.2 software. Typical exposure times were 0.1-1.0 s and fluorescence images were background-corrected. Different samples in the same experiment were prepared, imaged and analyzed under identical conditions.

[10] = format: binding
Description: AFM cantilevers (Veeco MLCT-AUHW) with a nominal spring constant of 0.01 N/m were used in all measurements and calibrated by the thermal fluctuation method (Hutter and Bechhoefer, 1993, Review of Scientific Instruments, 64, 1868-1873). Cantilevers were briefly washed in acetone and then UV irradiated for 15 minutes. Cantilevers were then briefly dipped in 0.1M NaHCO3 pH 9.0, air-dried, and coated in 0.5 mg/mL biotinamidocaproyl-Bovine Serum Albumin (biotin-BSA) (Sigma) overnight at 4° C. in a humidified chamber. Cantilevers were washed three times in PBS and then coated with 0.01-0.3 mg/mL streptavidin or […] for 15 mins at 25° C. […] dishes were coated with 0.1M NaHCO3 pH 9 and then 0.5 mg/mL non-recombinant streptavidin (from Streptomyces avidinii, Pierce) in 0.1M NaHCO3 pH 9 overnight in a humidified chamber at 4° C. Biotinylated agarose beads (Sigma) were aspirated onto the dish. Measurements were conducted at 25° C. with a custom built AFM (Rico and Moy, 2007, J. Mol. Recogniti., 20, 495-501). […] Single molecule rupture forces were determined by calculating the force in the retraction trace at the initial point of rupture, using Igor Pro 6.04 (Wavemetrics Inc.). […] The loading rate was determined as the slope of the force vs time plot before the rupturing of the single molecule bond and significance was evaluated with the Mann-Whitney test.

[11] = 37° C., pH 7.4, excess free biotin

In the case of `O=C(O)CCCC[C@@H]1SC[C@@H]2NC(=O)N[C@@H]21` [biotin, cis-hexahydro-2-oxo H-thieno[3,4] imidazole-4-pentanoic acid], the pKa [1] is given as “about 4”.

For “avidin: Avidin (Sigma), biotin binding protein used as comparator [reference compound]”, the “biotin conjugate off-rate (biotin-4-fluorescein dissociation)” value (“biotin conjugate off-rate” below) [2, 11] was “dissociated very much faster than streptavidin”.

In the case of “streptavidin: wildtype streptavidin protein comprising four wildtype subunits; core streptavidin with C-terminal His6 used in the tests [reference compound]”, the “half life of free biotin” value [3] is given as “approximately 6.6 hr”, the “off rate of biotin” value [3] is given as 2.9e-05 s⁻¹ and the “half life for conjugated biotin” value [4] is given as 6 to 100 h. For the same compound, the “temperature at which there is 50% dissociation of biotin or biotin conjugate” value [5] was 50-60 °C, the “dissociation of biotinylated DNA at 70° C.” value [5] was “complete dissociation” and the “biotin conjugate off-rate” value [2, 11] was “dissociated steadily”. The “amount of B-4-F recovered” value ([2]; 10 hour incubation, 37° C., excess biotin) was “at least 9%”, the “dissociated from the DNA by FtsK50C translocation” value [6] was 33% and the “temperature at which there is 50% dissociation of tetramer into monomer” value [7] was about 75 °C. For the same compound, the “temperature at which there is 50% dissociation of tetramer into monomer” value ([7]; listed as wildtype streptavidin) was 70-75 °C.

For “traptavidin: S52G R53D mutant of core streptavidin with His6 tag, tetramer; subunit SEQ ID NO. 5”, the “dissociation of biotinylated DNA at 70° C.” value [5] was “most ligand was still bound”, the “biotin conjugate off-rate” value [2, 11] was “dramatically reduced biotin conjugate off-rate” and the “change at the initial time-point (dissociation)” value [2, 11] was about 2%. The “dissociation over the subsequent 12 hr” value [2, 11] was “very little dissociation”, the “off-rate at pH 5 of biotin-4-fluorescein” value ([2]; pH 5, 37° C.) was “significantly slower than streptavidin” and the “on-rate reduction relative to streptavidin” value [8] was “approximately 2 fold”. For the same compound, the “binding to untransfected neighboring cells expressing only AP-IGF1R” value ([9]; Alexa Fluor 555 conjugate) was “no detectable binding”, the “signal on AP-IGF1R/BirA-ER expressing cells” value ([9]; Alexa Fluor 555 conjugate) was “strong signal” and the “specificity for cellular imaging” value ([9]; Alexa Fluor 555 conjugate) was “high specificity”. For the same compound, the “staining compared with streptavidin” value ([9]; each conjugated to Alexa Fluor 555) was “comparable”, the “binding to equivalently treated cells when pre-blocked with free biotin” value ([9]; pre-blocked with free biotin) was “minimal binding” and the “mechanical stability to a biotinylated ligand” value [10] was “significantly greater mechanical stability than streptavidin”. For the same compound, the “dissociated from the DNA by FtsK50C translocation” value [6] was 11% and the “temperature at which there is 50% dissociation of tetramer into monomer” value [7] was about 85 °C.
